Measurements reported in the supplement of paper PMC3493320.

How the values were obtained:
NCI-H295R [1] = assay: maximal response (efficacy) relative to DMSO (0%) and doxorubicin (-100%); higher = less growth inhibition; settings: 48 h
NCI-H295R [2] = assay: IC50 (antiproliferative, ATP content); settings: 48 h

| SMILES | IC50 (NCI-H295R [2]) | maximal response (NCI-H295R [1]) |
| --- | --- | --- |
| [C@@]42([C@@]([C@@H](/C/1=C/OC(\C=C\1)=O)CC2)(CC[C@@H]5[C@]\3(CC[C@@H](/C=C/3CC[C@@H]45)O[C@H]6[C@@H]([C@@H]([C@H]([C@@H](O6)C)O)O)O)C)C)O | 0.0128 µM | -111% |
| Cc1cc(/C=C/c2ccc3cc(N(C)C)ccc3[n+]2C)c(C)n1-c1ccccc1.Cc1cc(/C=C/c2ccc3cc(N(C)C)ccc3[n+]2C)c(C)n1-c1ccccc1.O=C([O-])c1cc2ccccc2c(Cc2c(O)c(C(=O)[O-])cc3ccccc23)c1O | 7.18 µM | -69.7% |
| Oc1c(I)cc(I)c2cccnc12 | 5.31 µM | -82.7% |
| COc1cc(-c2ccc(-[n+]3nc(-c4ccccc4)nn3-c3ccc([N+](=O)[O-])cc3)c(OC)c2)ccc1-[n+]1nc(-c2ccccc2)nn1-c1ccc([N+](=O)[O-])cc1.[Cl-].[Cl-] | 10.6 µM | -132% |
| O[C@H]2C[C@@H](O[C@H](C)[C@H]2O[C@@H]3O[C@H](C)[C@@H](O[C@H]4C[C@H](O)[C@H](OC)[C@@H](C)O4)[C@@H](O)C3)O[C@H]1CC[C@@]5(C)[C@@](CC[C@]6([H])[C@@]([H])5C[C@@H](O)[C@@]7(C)[C@@](O)6CC[C@@H]7[C@@](CO8)=CC8=O)([H])C1 | 0.237 µM | -111% |
| Nc1nc(N)c2nc(CNc3ccc(C(=O)N[C@@H](CCC(=O)O)C(=O)O)cc3)cnc2n1 | 8.41 µM | -79.1% |
| CC(C)C[C@@H]1NC(=O)[C@H](CCCN)NC(=O)[C@H](C(C)C)NC(=O)[C@@H]2CCCN2C(=O)[C@@H](Cc2ccccc2)NC(=O)[C@H](CC(C)C)NC(=O)[C@H](CCCN)NC(=O)[C@H](C(C)C)NC(=O)[C@@H]2CCCN2C(=O)[C@@H](Cc2ccccc2)NC1=O | 8.41 µM | -121% |
| NC(C(C)=C2)=CC=C2/C(C1=CC=C(N)C=C1)=C3/C=CC(C=C3)=N.Cl | 11.9 µM | -87.4% |
| Cl.Nc1c2ccccc2nc2ccccc12.O | 18.8 µM | -131% |
| O=C(OC[C@H]1O[C@@H](OC(=O)c2cc(O)c(O)c(OC(=O)c3cc(O)c(O)c(O)c3)c2)[C@H](OC(=O)c2cc(O)c(O)c(OC(=O)c3cc(O)c(O)c(O)c3)c2)[C@@H](OC(=O)c2cc(O)c(O)c(OC(=O)c3cc(O)c(O)c(O)c3)c2)[C@@H]1OC(=O)c1cc(O)c(O)c(OC(=O)c2cc(O)c(O)c(O)c2)c1)c1cc(O)c(O)c(OC(=O)c2cc(O)c(O)c(O)c2)c1 | 7.5 µM | -122% |
| COC(C(=O)C(O)C(C)O)C1Cc2cc3cc(OC4CC(OC5CC(O)C(O)C(C)O5)C(O)C(C)O4)c(C)c(O)c3c(O)c2C(=O)C1OC1CC(OC2CC(OC3CC(C)(O)C(O)C(C)O3)C(O)C(C)O2)C(O)C(C)O1 (configuration not stated) | 1.19 µM | -125% |

The next lines start with results.

| IC50 (NCI-H295R [2]) | SMILES | maximal response (NCI-H295R [1]) |
| --- | --- | --- |
| 6.68 µM | COc1ccc(-c2ccc3cc(C(=O)O)ccc3c2)cc1C12CC3CC(CC(C3)C1)C2 | -122% |
| 9.44 µM | CC1=C(/C=C/C(C)=C/C=C/C(C)=C/C(=O)Nc2ccc(O)cc2)C(C)(C)CCC1 | -125% |
| 23.7 µM | CC(C)=CCOc1ccc(C=CC(=O)c2ccc(OCC=C(C)C)cc2OCC(=O)O)cc1 | -145% |
| 15 µM | CCOc1nc2cccc(C(=O)O)c2n1Cc1ccc(-c2ccccc2-c2nnn[nH]2)cc1 | -145% |
| 26.6 µM | CO[C@@]12[C@H](COC(N)=O)C3=C(C(=O)C(C)=C(N)C3=O)N1C[C@@H]1N[C@@H]12 | -132% |
| 21.1 µM | Cc1cc(O)c2ccccc2c1O | -137% |
| 26.6 µM | CC1(COc2ccc(CC3SC(=O)NC3=O)cc2)CCCCC1 (configuration not stated) | -167% |
| 15 µM | CC(=O)Oc1ccccc1C(=O)Nc1ncc([N+](=O)[O-])s1 | -70.8% |
| 8.41 µM | CC(C)CCC[C@@H](C)[C@H]1CC(=O)C2=C3CC[C@H]4C[C@@H](O)CC[C@]4(C)[C@H]3CC[C@@]21C | -65% |
| 26.6 µM | CN(C)C(=O)CCSC(SCCC(=O)[O-])c1cccc(/C=C/c2ccc3ccc(Cl)cc3n2)c1.[Na+] (configuration not stated) | -77.8% |
